Source: patent US8349791B2, “Polypeptides that bind membrane proteins” (The Trustees of the University of Pennsylvania, priority 2006, dated 2013)
Peptide text beside a SMILES is read from it.

Key:
Assay type in all cases: cell-based
[1] = target: T1, αIIb TM domain (Homo sapiens, UniProt P08514); experiment: DN-TOXCAT heterodimerization; details: coexpressed in bacterial membranes
T1 construct: expressed in transfected cells; host or cells: E. coli MM39, pDNToxR-Duet
Method: Both the affinity and specificity of the membrane protein-binding peptides for their targets when coexpressed in bacterial membranes were assessed with a DN-“TOXCAT” assay (FIGS. 3a-3c). In TOXCAT, a TM sequence of interest is fused to a ToxR protein (TM-ToxR) that binds to the ctx promoter as a dimer, which induces expression of chloramphenicol acetyltransferase (CAT) (W. P. Russ, D. M. Engelman, Proc. Natl. Acad. Sci. U.S.A. 96, 863 (1999); D. Langosch, B. Brosig, H. Kolmar, H. J. Fritz, J. Mol. Biol. 263, 525 (1996)). In the DN assay, the TM1-ToxR fusion protein is coexpressed with a second fusion protein (TM2-ToxR*) containing a nonfunctional mutant of the ToxR domain. TM-driven dimerization leads to a ToxR-ToxR* dimer that is unable to bind the ctx promoter or to induce CAT synthesis (FIG. 3a). The resulting decrease in CAT activity can be used to monitor the formation of a heterodimeric TM complex. […]
Mutants were generated using the QuikChange site-directed mutagenesis kit (Stratagene). […] In order to quantify the effects of mutations to anti-αIIb on the change in heterodimerization relative to wild-type anti-αIIb, a disruption index (or % disruption of heterodimerization) was calculated from the data as follows: […]

[2] = target: T2, α2 TM domain (Homo sapiens, UniProt P17301); experiment: DN-TOXCAT heterodimerization; details: coexpressed in bacterial membranes
T2 construct: expressed in transfected cells; host or cells: E. coli MM39, pDNToxR-Duet
T2 sequence (P17301 with tags, fused parts or gaps limits assumed): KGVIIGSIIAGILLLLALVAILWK
Method: (§1) Both the affinity and specificity of the membrane protein-binding peptides for their targets when coexpressed in bacterial membranes were assessed with a DN-“TOXCAT” assay (FIGS. 3a-3c). In TOXCAT, a TM sequence of interest is fused to a ToxR protein (TM-ToxR) that binds to the ctx promoter as a dimer, which induces expression of chloramphenicol acetyltransferase (CAT) (W. P. Russ, D. M. Engelman, Proc. Natl. Acad. Sci. U.S.A. 96, 863 (1999); D. Langosch, B. Brosig, H. Kolmar, H. J. Fritz, J. Mol. Biol. 263, 525 (1996)). In the DN assay, the TM1-ToxR fusion protein is coexpressed with a second fusion protein (TM2-ToxR*) containing a nonfunctional mutant of the ToxR domain. TM-driven dimerization leads to a ToxR-ToxR* dimer that is unable to bind the ctx promoter or to induce CAT synthesis (FIG. 3a). The resulting decrease in CAT activity can be used to monitor the formation of a heterodimeric TM complex. In principle, this assay could be accomplished by adding an exogenous synthetic peptide (D. Gerber, N. Sal-Man, Y. Shai, J. Mol. Biol. 339, 243 (2004)); however, it is difficult to assure that different peptides will be similarly inserted into the Escherichia coli inner membrane.
(§2) For testing the specificity of the designed membrane protein-binding polypeptide sequences against the integrin TM domains, the designed sequences (anti-αIIb and anti-αV) were cloned into MCS1 of the Duet vector and the integrin TM domains into MCS2 of the Duet vector. In this configuration, the integrin TMs compete for the homodimers formed by the polypeptide sequences, with the decrease in CAT signal proportional to the extent of heterodimerization between a given integrin TM and polypeptide sequence relative to the homodimerization of the polypeptide sequence.
(§3) Single MM39 colonies containing pDNToxR-Duet constructs from selective plates were chosen, inoculated in 5 mL of LB medium containing 100 μg/mL ampicillin and grown to an OD600 of 0.2 at 37° C. with vigorous shaking. IPTG was added to the medium at a final concentration of 0.1 mM IPTG and grown to an OD600 of 0.7. Purification, immunoblotting, CAT ELISA and MalE complementation assays are essentially as described previously. Li, R., Gorelik, R., Nanda, V., Law, P. B., Lear, J. D., DeGrado, W. F. and Bennett, J. S. J. Biol. Chem. 2004, 279, 26666-26673 (2004). For immunoblotting, anti-MBP (NEB) was used for pccKAN (TOXCAT) constructs, whereas anti-myc (Covance) and anti-HA (Covance) were used for pDNToxR-Duet constructs. CAT ELISA results are an average of 3 independent replicates.

[3] = target: T3, β1 TM domain (Homo sapiens, UniProt P05556); experiment: DN-TOXCAT heterodimerization; details: coexpressed in bacterial membranes
T3 construct: expressed in transfected cells; host or cells: E. coli MM39, pDNToxR-Duet
T3 sequence (P05556 with tags, fused parts or gaps limits assumed): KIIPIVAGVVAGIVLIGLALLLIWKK
Method: as §1, §2, §3

[4] = target: T4, β3 TM domain (Homo sapiens, UniProt P05106); experiment: DN-TOXCAT heterodimerization; details: coexpressed in bacterial membranes
T4 construct: expressed in transfected cells; host or cells: E. coli MM39, pDNToxR-Duet
T4 sequence (P05106 with tags, fused parts or gaps limits assumed): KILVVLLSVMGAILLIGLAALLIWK
Method: as §1, §2, §3

[5] = test system: gel-filtered human platelets; experiment: Platelet aggregation, turbidometric
Method: Platelet-rich plasma, prepared from human blood anti-coagulated with 0.1 volume of 0.13 M sodium citrate, was gel-filtered on Sepharose 2B (Amersham Biosciences, Piscataway, N.J.) using an elution buffer containing 137 mM NaCl, 2.7 mM KCl, 1 mM MgCl2, 5.6 mM glucose, 0.35 mg/ml bovine serum albumin, 3.3 mM NaH2PO4, and 4 mM HEPES (pH=7.4), as previously described. Jordan P et al. Nature 411, 909-917 (2001). Turbidometric measurements of platelet aggregation were performed in a Chrono-Log Lumi-Dual Aggregometer. Aliquots (0.4 ml) of the gel-filtered platelet suspension were supplemented with 200 μg/ml human fibrinogen (Enzyme Research Labs., South Bend, Ind.) and 1 mM CaCl2 (final concentrations) prior to adding platelet agonists. The polypeptide was added from a DMSO solution such that the final concentration of DMSO was no greater than 0.5%. All controls also had 0.5% DMSO in the buffer.

T1 sequence (P08514 with tags, fused parts or gaps limits assumed): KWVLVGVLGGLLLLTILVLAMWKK

CC[C@H](C)[C@H](NC(=O)[C@H](Cc1ccccc1)NC(=O)[C@H](Cc1ccccc1)NC(=O)[C@@H]1CCCN1C(=O)[C@H](CC(C)C)NC(=O)[C@H](CC(C)C)NC(=O)[C@H](CCSC)NC(=O)[C@@H](NC(=O)[C@H](Cc1ccc(O)cc1)NC(=O)[C@H](C)NC(=O)[C@H](CCCCN)NC(=O)[C@@H](N)CCCCN)C(C)C)C(=O)NCC(=O)N[C@@H](CC(C)C)C(=O)N[C@@H](CC(C)C)C(=O)N[C@@H](CC(C)C)C(=O)NCC(=O)N[C@@H](CC(C)C)C(=O)N[C@H](C(=O)N[C@@H](Cc1ccccc1)C(=O)NCC(=O)NCC(=O)N[C@@H](C)C(=O)N[C@@H](Cc1ccccc1)C(=O)N[C@@H](Cc1c[nH]c2ccccc12)C(=O)NCC(=O)N1CCC[C@H]1C(=O)N[C@@H](C)C(=O)N[C@@H](CCCNC(=N)N)C(=O)N[C@@H](Cc1c[nH]cn1)C(=O)N[C@@H](CC(C)C)C(=O)N[C@@H](CCCCN)C(=O)N[C@@H](CCCCN)C(N)=O)[C@@H](C)CC [anti-αIIb] (H-KKAYVMLLPFFIGLLLGLIFGGAFWGPARHLKK-NH2; N-terminus assumed)
CAT signal of anti-αIIb-ToxR with αIIb as the DN partner [1]: strongly attenuated | interaction with α2 TM domain [2]: failed to significantly interact | interaction with β1 TM domain [3]: failed to significantly interact | interaction with β3 TM domain [4]: failed to significantly interact | induced aggregation in the presence of PGE1 and apyrase ([5]; 1 μM peptide, 2 μM PGE1, 10 units/ml apyrase): only minimally affected | induced aggregation in the presence of EDTA, Arg-Gly-Asp-Ser or antibody A2A9 ([5]; agents that directly target αIIbβ3): inhibited | platelet aggregation response ([5]; gel-filtered human platelets): highly active
